# Assay results from patent US20220378901A1, “APPLICATION OF PSEUDOMONAS AERUGINOSA VACCINE IN RESPIRATORY DISEASE” (Sichuan University, priority 2019, published 2022).
# Experiments:
# [1] = test system: SKLBPA1; assay: Efficacy against infection of vaccine alone or in combination with antibiotics; settings: 24 h after infection; no immunization; ATM 4 times (2 h, 4 h, 6 h, 8 h, 100 mg/kg/time); Model 24 h 6.86 ± 0.45
# Method: The mice in the immunization group are subcutaneously immunized with SKLB-V1 in the groin at 1×10^7 CFU/100 μL, with 3 injections. […] 24 h after the last immunization, the bacteria SKLBPA1 are used for challenge.
# [2] = test system: SKLBPA1; assay: Immunoprotection against SKLBPA1 pulmonary infection; assay type: in vivo, Pseudomonas aeruginosa
# From the text: . […] One week after the last immunization, SKLBPA1 (which is the homologous strain of vaccine bacteria) and clinical carbapenem-resistant Pseudomonas aeruginosa (CRPA) C58 (from sputum, the drug sensitivity information of clinical C58 is shown in Table 7, which is different from the serotype of vaccine bacteria) are used for challenge.
compound,measurement,setting,value
"C[C@H]1[C@H](NC(=O)/C(=N\OC(C)(C)C(=O)O)c2csc(N)n2)C(=O)N1S(=O)(=O)O [Aztreonam, aztreonam]",Lung LOG10CFU,[1],4.11 ± 0.44 LOG10CFU
same,Bacterial Load log10CFU,[2]; in vivo,4.31 ± 1.27 log10CFU
same,Bacterial Load log10CFU,"[2]; mice lung tissue, 4 h after infection, SKLB-V1 1×10^7 CFU s.c. at 0, 1st, 2nd weeks, aztreonam 100 mg/kg i.p. from 2 h, model 4.50 ± 1.05",4.68 ± 0.22 log10CFU
